# Measured values reported in patent US20110009624A9, “BENZIMIDAZOLE COMPOUNDS HAVING GASTRIC ACID SECRETION INHIBITORY ACTION” (priority 2006, published 2011).
# Key:
# [1] = test system: gastric acid secretion (histamine-stimulated); assay: Gastric acid secretion inhibitory effects in dogs fitted with chronic gastric fistula tube; type: in vivo; conditions: for Gastric acid secretion inhibitory action (%) / Duration of gastric acid secretion inhibitory action (%): dogs with chronic gastric fistula tube, histamine i.v., 1.6 mg/kg i.d.; for Gastric acid secretion inhibitory action (%): day 1 (1 h 40 min to 2 h after administration); for Duration of gastric acid secretion inhibitory action (%): day 2 (24 hours after administration); for gastric acid secretion inhibitory action and duration of gastric acid secretion inhibitory action (assessment in words): on the basis of Table 1
# Description: Gastric Acid Secretion Inhibitory Effects in Dogs Fitted with Chronic Gastric Fistula Tube
# The gastric acid secretion inhibitory and duration of gastric acid secretion inhibitory action of compounds of the examples were assessed using large dogs fitted with a chronic gastric fistula tube (body weights: approx. 14 to 19 kg). The experiment was conducted for 2 days. On the first day, gastric juices were collected every 20 minutes under conditions of continuous intravenous administration of histamine (50 or 75 μg/kg/h) for 3 hours. A compound of the examples dissolved or suspended in 0.5% methyl cellulose solution was administered via a catheter implanted in the duodenum at the rate of 0.1 ml/kg one hour after the start of histamine administration. The gastric acid secretion inhibitory action of the compound of the examples was assessed over the next two hours. On the second day (24 hours after administration of the compound of the examples), gastric juices were collected every 20 minutes under conditions of continuous intravenous administration of histamine for 2 hours followed by assessment of the duration of gastric acid secretion inhibitory action. After measuring the amount of gastric juices, 0.5 ml of gastric juice were sampled and titrated to neutrality to a pH of 7.0 with 0.04 mol/L aqueous sodium hydroxide solution to measure acid concentration. The amount of gastric acid discharged was determined by multiplying the amount of gastric juice by the acid concentration. Gastric acid secretion inhibitory action was evaluated as the rate of gastric acid secretion inhibition (%) on day 1. Gastric acid secretion inhibitory action (%) was determined according to the formula indicated below:
# Gastric acid secretion inhibitory action (%)=(A−B)/A×100
# [A]: amount of gastric acid discharged for 20 minutes from 40 minutes to 1 hour after the start of administration of histamine
# [B]: amount of gastric acid discharged for 20 minutes from 1 hour 40 minutes to 2 hours after the start of administration of the compound of the examples.
# The duration of gastric acid secretion inhibitory action was evaluated as the rate of gastric acid secretion inhibition (%) on day 2. The duration of gastric acid secretion inhibitory action (%) was determined according to the formula indicated below:
# Duration of gastric acid secretion inhibitory action (%)=(C−D)/C×100
# [C]: Total amount of gastric acid discharged from start of administration of histamine on day 1 to one hour later
# [D]: Total amount of gastric acid discharged from start of administration of histamine on day 2 to one hour later.
# H+, K+-ATPase = target: T1, H+, K+-ATPase (Sus scrofa, UniProt P19156); assay: H+, K+-ATPase activity inhibitory action; type: biochemical; conditions: hog gastric mucosa enzyme, preincubation 30 minutes at 37° C., pH 6.1
# T1 construct: H^+, K^+-ATPase was prepared from a fundic gland area of fresh hog gastric mucosa; from tissue; host or cells: fundic gland area of fresh hog gastric mucosa
# T1 sequence (P19156 whole entry): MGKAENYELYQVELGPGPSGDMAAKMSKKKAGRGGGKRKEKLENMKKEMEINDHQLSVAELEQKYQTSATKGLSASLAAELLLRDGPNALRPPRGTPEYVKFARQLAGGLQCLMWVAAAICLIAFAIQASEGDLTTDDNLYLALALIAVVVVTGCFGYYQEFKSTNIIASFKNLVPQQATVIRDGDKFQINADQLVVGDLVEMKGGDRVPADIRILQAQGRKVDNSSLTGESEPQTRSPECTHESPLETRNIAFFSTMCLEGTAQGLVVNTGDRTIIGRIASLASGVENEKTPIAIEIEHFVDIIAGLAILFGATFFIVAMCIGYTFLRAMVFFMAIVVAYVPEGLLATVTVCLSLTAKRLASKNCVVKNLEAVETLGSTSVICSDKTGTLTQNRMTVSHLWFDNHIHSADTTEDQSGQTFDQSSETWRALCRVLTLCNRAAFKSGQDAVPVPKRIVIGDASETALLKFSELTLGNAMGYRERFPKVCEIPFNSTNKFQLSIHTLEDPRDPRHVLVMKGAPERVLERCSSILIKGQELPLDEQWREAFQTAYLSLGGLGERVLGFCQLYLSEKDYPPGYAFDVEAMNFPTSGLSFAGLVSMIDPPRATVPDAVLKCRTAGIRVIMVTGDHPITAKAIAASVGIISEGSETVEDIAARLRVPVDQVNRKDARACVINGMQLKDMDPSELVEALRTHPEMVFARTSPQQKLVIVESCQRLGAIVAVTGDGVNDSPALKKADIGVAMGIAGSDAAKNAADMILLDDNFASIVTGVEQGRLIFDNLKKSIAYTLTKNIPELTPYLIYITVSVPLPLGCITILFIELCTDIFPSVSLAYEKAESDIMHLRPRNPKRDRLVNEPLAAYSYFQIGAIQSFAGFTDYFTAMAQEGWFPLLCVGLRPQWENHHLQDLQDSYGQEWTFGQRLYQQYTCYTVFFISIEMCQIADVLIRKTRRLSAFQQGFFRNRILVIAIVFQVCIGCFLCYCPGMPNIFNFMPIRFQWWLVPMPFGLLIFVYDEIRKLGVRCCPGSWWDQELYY
# T1 sequence (P18434 whole entry partner): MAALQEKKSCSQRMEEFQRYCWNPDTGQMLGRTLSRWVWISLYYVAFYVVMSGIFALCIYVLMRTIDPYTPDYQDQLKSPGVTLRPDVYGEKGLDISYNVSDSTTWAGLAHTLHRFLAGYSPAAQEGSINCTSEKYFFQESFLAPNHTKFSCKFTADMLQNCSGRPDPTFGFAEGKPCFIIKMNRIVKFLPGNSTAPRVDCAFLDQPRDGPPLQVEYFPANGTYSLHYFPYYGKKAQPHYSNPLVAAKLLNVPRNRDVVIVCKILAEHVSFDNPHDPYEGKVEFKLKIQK
# Description: H^+, K^+-ATPase Activity Inhibitory Action
# H^+, K^+-ATPase was prepared from a fundic gland area of fresh hog gastric mucosa using a variation of the Chang's method [Biochim. Biophys. Acta 464, 313 (1977)].
# (1) The sodium salt of 2-[[[4-[3-hydroxy-2-(hydroxymethyl)propoxy]-3,5-dimethylpyridin-2-yl]methyl]sulfinyl]-1H-benzimidazole (Example 15) and (2) 3-[3-hydroxy-2-(hydroxymethyl)propoxy]-2,4-dimethyl-5H-pyrido[1′,2′,4,5][1,2,4]thiadiazino[2,3-a]benzimidazolium hexafluorophosphate (Example 16) were selected for the test compounds, and each was used after dissolving in methanol.
# 10 μL aliquots of various concentrations of the test compounds or solvent were mixed into 200 μL of 50 μg/mL H^+, K^+-ATPase, 100 μL of 10 mmol/L Pipes-Tris (pH 6.1) and 190 μL of distilled water followed by incubating for 30 minutes at 37° C., adding 150 μL of 100 mmol/L KCl (or distilled water) and 10 μL of 100 μg/mL gramicidin, and further incubating for 10 minutes. […] The amount of inorganic phosphoric acid that was released during this 10 minute period was measured in compliance with the method of Yoda and Hokin (Biochem. Biophys. Res. Commun., 40, 880, 1970). […]
# Residual enzyme activity at each concentration of test compound was determined as the amount of H^+, K^+-ATPase activity as a percentage of the H^+, K^+-ATPase activity of a control group (solvent addition). […]
structure (smiles),measurement,setting,value
"Cc1c(OCCCC2COC3(CCC3)O2)ccnc1C[S+]([O-])c1nc2ccccc2[n-]1.[Na+] (stereo not shown) [Example 9, 2-[[[4-[3-(5,8-dioxaspiro[3.4]octa-6-yl)propoxy]-3-methylpyridin-2-yl]methyl]sulfinyl]-1H-benzimidazole]",Gastric acid secretion inhibitory action (%),[1],100%
same,Duration of gastric acid secretion inhibitory action (%),[1],89%
same,gastric acid secretion inhibitory action and duration of gastric acid secretion inhibitory action (assessment in words),[1],satisfactory
"Cc1c(OCCC2COC3(CCOCC3)O2)ccnc1C[S+]([O-])c1nc2ccccc2[n-]1.[Na+] (stereo not shown) [Example 13, 2-[[[3-methyl-4-[2-(1,4,8-trioxaspiro[4.5]deca-2-yl)ethoxy]pyridin-2-yl]methyl]sulfinyl]-1H-benzimidazole]",Gastric acid secretion inhibitory action (%),[1],100%
same,Duration of gastric acid secretion inhibitory action (%),[1],84%
same,gastric acid secretion inhibitory action and duration of gastric acid secretion inhibitory action (assessment in words),[1],satisfactory
"Cc1c[n+]2c(c(C)c1OCC(CO)CO)CSn1c-2nc2ccccc21 [Example 16, 3-[3-Hydroxy-2-(hydroxymethyl)propoxy]-2,4-dimethyl-5H-pyrido[1′,2′,4,5][1,2,4]thiadiazino[2,3-a]benzimidazolium hexafluorophosphate]",IC50,"H+, K+-ATPase",220 nM
